{"source": "paper PMC5939596", "about": "(Cell chemical biology, 2016)", "key": {"legumain [1]": {"target": "T1, legumain (Homo sapiens, UniProt Q99538)", "T1 sequence (Q99538 18-323 limits assumed)": "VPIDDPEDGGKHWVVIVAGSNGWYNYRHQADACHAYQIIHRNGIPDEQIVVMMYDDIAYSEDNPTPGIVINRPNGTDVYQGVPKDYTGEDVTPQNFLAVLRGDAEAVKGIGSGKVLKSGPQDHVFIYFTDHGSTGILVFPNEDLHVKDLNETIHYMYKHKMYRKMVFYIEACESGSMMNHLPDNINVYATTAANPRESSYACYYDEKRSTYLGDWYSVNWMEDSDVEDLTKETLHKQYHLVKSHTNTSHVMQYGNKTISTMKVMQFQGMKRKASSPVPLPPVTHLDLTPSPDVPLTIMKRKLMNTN", "assay": "pH dependence of legumain activity towards P1-Asn and P1-Asp substrates", "assay_type": "biochemical"}, "legumain [2]": {"target": "T1, legumain", "assay": "Kinetics of ACC substrate hydrolysis by legumain", "assay_type": "biochemical", "details": "for kcat/Km: hydrolysis by legumain"}, "[3]": {"target": "T2, autoactivated recombinant human legumain (Homo sapiens, UniProt Q99538)", "T2 sequence (Q99538 18-323 limits assumed)": "T1 sequence (Q99538 18-323 limits assumed)", "assay": "Km of legumain cleavage of Z-Ala-Ala-Asn-AMC", "assay_type": "biochemical", "details": "2.5 nM autoactivated rhLeg, substrate 1.565–200 nM, legumain assay buffer pH 5.8, 30°C"}, "caspase-3 [4]": {"target": "T3, caspase-3 (Homo sapiens, UniProt P42574)", "T3 sequence (P42574 29-175 limits assumed)": "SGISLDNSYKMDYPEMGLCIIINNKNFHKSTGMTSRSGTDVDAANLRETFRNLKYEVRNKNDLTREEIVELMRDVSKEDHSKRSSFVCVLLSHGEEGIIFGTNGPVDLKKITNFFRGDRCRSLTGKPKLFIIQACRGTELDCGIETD", "T3 sequence (P42574 176-277 limits assumed)": "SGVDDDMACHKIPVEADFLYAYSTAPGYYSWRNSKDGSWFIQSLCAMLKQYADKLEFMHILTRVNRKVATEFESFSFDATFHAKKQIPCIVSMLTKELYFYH", "assay": "Probe binding in cytochrome c/dATP-activated FreeStyle 293-F cytosolic extract", "details": "probe 0–1 μM, pH 5.8 and 7.2, 5 or 30 min at 30°C, immunoblotting"}, "legumain [5]": {"target": "T1, legumain", "assay": "Probe labelling in lysates of caspase-8/caspase-3 cotransfected M38L cells", "assay_type": "cell-based", "details": "for probe labelling of legumain: probe 1 μM, 30 min at 30°C, pH 5.8 or 7.4, immunoblotting"}, "[6]": {"target": "T2, autoactivated recombinant human legumain", "assay": "Inhibition rate constants"}, "caspase-3 [7]": {"target": "T3, caspase-3", "assay": "Probe labelling in lysates of caspase-8/caspase-3 cotransfected M38L cells", "assay_type": "cell-based", "details": "probe 1 μM, 30 min at 30°C, pH 5.8 or 7.4, immunoblotting"}, "prolegumain (56 kDa)": {"target": "T4, prolegumain (56 kDa) (Homo sapiens, UniProt Q99538)", "T4 sequence (Q99538 18-433)": "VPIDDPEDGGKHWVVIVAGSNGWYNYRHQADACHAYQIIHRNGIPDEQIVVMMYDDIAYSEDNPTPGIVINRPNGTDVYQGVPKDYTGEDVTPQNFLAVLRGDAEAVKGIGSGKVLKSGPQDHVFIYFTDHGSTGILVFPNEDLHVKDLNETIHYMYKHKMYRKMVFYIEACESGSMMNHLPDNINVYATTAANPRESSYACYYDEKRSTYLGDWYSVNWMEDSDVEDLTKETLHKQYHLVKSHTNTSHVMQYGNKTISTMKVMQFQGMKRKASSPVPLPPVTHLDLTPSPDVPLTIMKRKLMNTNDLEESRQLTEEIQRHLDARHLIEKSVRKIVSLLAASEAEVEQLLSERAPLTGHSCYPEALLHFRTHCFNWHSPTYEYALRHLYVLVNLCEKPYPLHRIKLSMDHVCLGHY", "assay": "Probe binding to prolegumain", "details": "immunoblotting"}, "[8]": {"target": "T5, recombinant auto-activated legumain (46 kDa) (Homo sapiens, UniProt Q99538)", "T5 sequence (Q99538 18-323 limits assumed)": "T1 sequence (Q99538 18-323 limits assumed)", "assay": "Probe binding to recombinant enzyme", "details": "probe 10 nM, enzyme 50 nM, pH 5.8 and pH 7.2"}, "legumain [9]": {"target": "T1, legumain", "assay": "Direct probe binding and inhibition of legumain in M38L cell lysate", "assay_type": "biochemical", "details": "M38L lysate 3.5 μg total protein, probe 0–10 μM, pH 5.8, 30 min at 30°C"}, "[10]": {"test_system": "legumain over-expressing M38L cells", "details": "time-course 0–24 h, immunoblotting"}}, "note": "Non-standard residues stand in square brackets, D forms with d. *: point of attachment. ACC = NC(=O)Cc1cc(=O)oc2cc(N*)ccc12; Tic = O=C(O)[C@@H]1Cc2ccccc2CN1; AMC = Cc1cc(=O)oc2cc(N*)ccc12; Cbz = O=C(OCc1ccccc1)*", "data": [{"substance": "Ac-D-Tyr-Tic-Thr-Asn-ACC", "values": [{"measurement": "optimal pH for legumain activity", "setting": "legumain [1]", "result": 5.8}]}, {"substance": "Ac-[dY][Tic]TD-{ACC}", "values": [{"measurement": "optimal pH for legumain activity", "setting": "legumain [1]", "result": 4.5}]}, {"substance": "Cbz-Ala-Ala-Asn-{ACC}", "values": [{"measurement": "kcat/Km", "setting": "legumain [2]", "result": 36100, "unit": "s^−1M^−1"}, {"measurement": "times faster cleaved than its P1-Asp analog", "setting": "legumain [2]; ratio of kcat/Km, Z-AAN-ACC versus Z-AAD-ACC", "result": "~ 22"}]}, {"substance": "Cbz-Ala-Ala-Asn-{AMC}", "values": [{"measurement": "Km", "setting": "[3]", "result": 25.7, "unit": "µM"}]}, {"substance": "Cbz-Ala-Ala-Asp-{ACC}", "values": [{"measurement": "kcat/Km", "setting": "legumain [2]", "result": 1600, "unit": "M⁻¹ s⁻¹"}]}, {"substance": "biotin-6-ahx-D-Tyr-Tic-Ser-Asp-AOMK [MP-L01] [listing 1 of 2 here]", "values": [{"measurement": "binding to active caspase-3", "setting": "caspase-3 [4]", "result": "only weakly bound"}, {"measurement": "pH dependence of legumain binding", "setting": "legumain [5]; lysates of M38L cells, pH 5.8 versus 7.4", "result": "only detected at pH 5.8 and not at 7.4"}, {"measurement": "probe labelling of legumain", "setting": "legumain [5]", "result": "only binds legumain"}, {"measurement": "inhibition rate constant (kobs/I) relative to the two methylated probes (MP-L02 and -L03)", "setting": "[6]; 2.5 nM enzyme, Z-Ala-Ala-Asn-AMC substrate, pH 5.8, 30°C", "result": "approximately 100 fold"}, {"measurement": "probe labelling of caspase-3", "setting": "caspase-3 [7]", "result": "could not detect such activity"}, {"measurement": "binding to cellular, secreted or recombinant prolegumain (56 kDa)", "setting": "prolegumain (56 kDa)", "result": "did not bind"}, {"measurement": "binding to recombinant auto-activated legumain", "setting": "[8]", "result": "bound by MP-L01 at pH 5.8 and not at pH 7.2"}, {"measurement": "potency relative to either methylated probes (MP-L02 or -L03)", "setting": "legumain [9]", "result": "approximately 100 fold"}]}, {"substance": "biotin-6-ahx-D-Tyr-Tic-Ser-Asp-AOMK [MP-L01] [listing 2 of 2 here]", "values": [{"measurement": "incubation time for maximal detection of probe in cells", "setting": "[10]", "result": "8 to 24", "unit": "h"}]}, {"substance": "biotin-6-ahx-DEVD-AOMK [reference compound]", "values": [{"measurement": "binding to active caspase-3", "setting": "caspase-3 [4]", "result": "strongly bound"}, {"measurement": "probe labelling of legumain", "setting": "legumain [5]", "result": "labels both legumain and caspase-3"}, {"measurement": "inhibition of recombinant legumain (kobs/I), lower efficiency than MP-L01", "setting": "[6]", "result": 20, "unit": "fold"}, {"measurement": "probe labelling of caspase-3", "setting": "caspase-3 [7]", "result": "labels both legumain and caspase-3"}]}]}
